Measured values: patent US10654837B2, “Sulphamoylaryl derivatives and use thereof as medicaments for the treatment of liver fibrosis” (Janssen Pharmaceutica NV, priority 2017, dated 2020)
pIC50: −log10 of the molar value.

Each compound was assayed against T1, 5HTR2B (Homo sapiens, UniProt P41595) (assay: 5HTR2B antagonist activity, calcium mobilization assay in human Maverick/293 cells (serotonin as agonist)). Conditions: intracellular calcium, emission 525 nm, read-out: Ca assay IC50.
T1 construct: host or cells: human Maverick/293 cells
Format: cell-based
Summary of the method: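 Calcium mobilization read over 80 s at ex 485/em 525 nm after serotonin addition. Before that, 2 h serum-free starvation, 50 min dye loading at 37 °C, and 15-30 min antagonist exposure. IC50 from sigmoidal fit of peak % inhibition.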

T1 sequence (P41595 whole entry): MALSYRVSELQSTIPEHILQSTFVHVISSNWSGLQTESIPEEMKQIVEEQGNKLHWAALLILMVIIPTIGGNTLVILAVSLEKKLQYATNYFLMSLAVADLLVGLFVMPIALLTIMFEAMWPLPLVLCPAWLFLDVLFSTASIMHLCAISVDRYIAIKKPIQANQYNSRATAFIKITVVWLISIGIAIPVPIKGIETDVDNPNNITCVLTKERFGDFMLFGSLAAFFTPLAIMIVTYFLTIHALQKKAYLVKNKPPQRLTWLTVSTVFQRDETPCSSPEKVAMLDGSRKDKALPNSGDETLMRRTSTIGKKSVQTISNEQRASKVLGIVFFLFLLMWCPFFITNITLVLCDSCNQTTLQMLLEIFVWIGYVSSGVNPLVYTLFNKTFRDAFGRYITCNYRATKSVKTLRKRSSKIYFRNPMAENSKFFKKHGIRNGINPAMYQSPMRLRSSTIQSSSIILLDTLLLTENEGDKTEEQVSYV

| Structure (SMILES) | pIC50 |
| --- | --- |
| COc1ccc(S(=O)(=O)N[C@H]2CCOC2)cc1C(=O)Nc1ccc(F)c(Cl)c1 [Compound 112, (S)—N-(3-Chloro-4-fluorophenyl)-2-methoxy-5-(N-(tetrahydrofuran-3-yl)sulfamoyl)benzamide] | 8.54 |
| COc1ccc(S(=O)(=O)N[C@H]2CC[C@@H](O)CC2)cc1C(=O)Nc1ccc(F)c(C)n1 [Compound 27, N-(5-Fluoro-6-methylpyridin-2-yl)-5-(N-((cis)-4-hydroxycyclohexyl)sulfamoyl)-2-methoxybenzamide] | 8.96 |
| COc1ccc(S(=O)(=O)N[C@H]2CCOC2)cc1C(=O)Nc1cccc(C)c1 [Compound 159] | 9.15 |
| COc1ccc(S(=O)(=O)N[C@H]2CCOC2)cc1C(=O)Nc1nccs1 [Compound 64, (S)-2-Methoxy-5-(N-(tetrahydrofuran-3-yl)sulfamoyl)-N-(thiazol-2-yl) benzamide] | 7.19 |
| [2H]C([2H])([2H])Oc1ccc(S(=O)(=O)N[C@H]2CCOC2)cc1C(=O)Nc1ncc(F)cc1F [Compound 196, (S)—N-(3,5-difluoropyridin-2-yl)-2-(methoxy-d3)-5-(N-(tetrahydrofuran-3-yl)sulfamoyl)benzamide] | 7.72 |
| COc1ccc(S(=O)(=O)N[C@H]2CCNC2)cc1C(=O)Nc1ccc(F)c(C(F)F)c1 [Compound 183, (S)—N-(3-(difluoromethyl)-4-fluorophenyl)-2-methoxy-5-(N-(pyrrolidin-3-yl)sulfamoyl)benzamide] | 9.30 |
| COc1ccc(S(=O)(=O)N[C@H]2CCOC2)cc1C(=O)Nc1ccc(F)c(C(F)F)c1 [Compound 167, (S)—N-(3-(Difluoromethyl)-4-fluorophenyl)-2-methoxy-5-(N-(tetrahydrofuran-3-yl)sulfamoyl)benzamide] | 9.49 |
| COc1ccc(S(=O)(=O)N[C@H]2CCOC2)cc1C(=O)Nc1nc(C)c(F)c(Cl)n1 [Compound 171, (S)—N-(4-chloro-5-fluoro-6-methylpyrimidin-2-yl)-2-methoxy-5-(N-(tetrahydrofuran-3-yl)sulfamoyl)benzamide] | 6.97 |
| COc1ccc(S(=O)(=O)N[C@H]2CC[C@@H](O)CC2)cc1C(=O)Nc1ccc(F)cc1 [Compound 53, N-(4-Fluorophenyl)-5-(N-((cis)-4-hydroxycyclohexyl)sulfamoyl)-2-methoxybenzamide] | 9.52 |
| COc1ccc(S(=O)(=O)N[C@@H](C)CO)cc1C(=O)Nc1ccc(F)c(C(F)F)c1 [Compound 35a, (S)—N-(3-(Difluoromethyl)-4-fluorophenyl)-5-(N-(1-hydroxypropan-2-yl)sulfamoyl)-2-methoxybenzamide] | 9.15 |
| COc1ccc(S(=O)(=O)NC2CN(C)C2)cc1C(=O)Nc1ccc(F)c(C)n1 [Compound 170, N-(5-Fluoro-6-methylpyridin-2-yl)-2-methoxy-5-(N-(1-methylazetidin-3-yl)sulfamoyl)benzamide] | 7.24 |
| COc1ccc(S(=O)(=O)N[C@H]2CCOC2)cc1C(=O)Nc1ccc(C#N)c(F)c1 [Compound 90] | 5.87 |
| COc1ccc(S(=O)(=O)NC2CCCOC2)cc1C(=O)Nc1ccc(F)c(C)n1 (single isomer, unassigned) [Compound 16b, (R*)—N-(5-Fluoro-6-methylpyridin-2-yl)-2-methoxy-5-(N-(tetrahydro-2H-pyran-3-yl)sulfamoyl)benzamide] | 8.04 |
| COc1ccc(S(=O)(=O)N(C)[C@H]2CCOC2)cc1C(=O)Nc1ccc(F)c(C)n1 [Compound 189, (S)—N-(5-fluoro-6-methylpyridin-2-yl)-2-methoxy-5-(N-methyl-N-(tetrahydrofuran-3-yl)sulfamoyl) benzamide] | 7.85 |
| COc1ccc(S(=O)(=O)N[C@H]2C[C@@H](C)C2)cc1C(=O)Nc1ccc(F)c(C)c1 [Compound 7a, N-(4-Fluoro-3-methylphenyl)-2-methoxy-5-(N-((cis)-3-methylcyclobutyl)sulfamoyl)benzamide] | 8.42 |
| COc1ccc(S(=O)(=O)N[C@H]2CCOC2)cc1C(=O)Nc1ccccc1OC(F)(F)F [Compound 150, (S)-2-Methoxy-5-(N-(tetrahydrofuran-3-yl)sulfamoyl)-N-(2-(trifluoromethoxy)phenyl)benzamide] | 8.00 |
| COc1ccc(S(=O)(=O)N[C@H]2CCOC2)cc1C(=O)Nc1cccc(OC(F)F)c1 [Compound 107, (S)—N-(3-(Difluoromethoxy)phenyl)-2-methoxy-5-(N-(tetrahydrofuran-3-yl)sulfamoyl)benzamide] | 7.57 |
| [2H]C([2H])([2H])Oc1ccc(S(=O)(=O)N[C@H]2CCOC2)cc1C(=O)Nc1ccc(F)cc1 [Compound 190, (S)—N-(4-fluorophenyl)-2-(methoxy-d3)-5-(N-(tetrahydrofuran-3-yl)sulfamoyl) benzamide] | 9.05 |
| COc1ccc(S(=O)(=O)NC2COC2)cc1C(=O)Nc1ccccc1Cl [Compound 62, N-(2-Chlorophenyl)-2-methoxy-5-(N-(oxetan-3-yl)sulfamoyl)benzamide] | 10.00 |
| COc1ccc(S(=O)(=O)N[C@H]2CCOC2)cc1C(=O)Nc1ccc(C#N)cc1F [Compound 73, (S)—N-(4-Cyano-2-fluorophenyl)-2-methoxy-5-(N-(tetrahydrofuran-3-yl)sulfamoyl)benzamide] | 8.26 |
| COc1ccc(S(=O)(=O)N[C@H]2CCOC2)cc1C(=O)Nc1ncccc1C [Compound 133, (S)-2-Methoxy-N-(3-methylpyridin-2-yl)-5-(N-(tetrahydrofuran-3-yl)sulfamoyl) benzamide] | 6.39 |
| COc1ccc(S(=O)(=O)N[C@H]2CCOC2)cc1C(=O)Nc1ccc(OC(F)F)cc1 [Compound 106, (S)—N-(4-(Difluoromethoxy)phenyl)-2-methoxy-5-(N-(tetrahydrofuran-3-yl)sulfamoyl)benzamide] | 6.22 |
| COc1ccc(S(=O)(=O)N[C@H]2CCOC2)cc1C(=O)Nc1ccc(F)cc1 [Compound 158, (S)—N-(4-Fluorophenyl)-2-methoxy-5-(N-(tetrahydrofuran-3-yl)sulfamoyl) benzamide] | 9.77 |
| COc1ccc(S(=O)(=O)NC2CCCC[C@@H]2O)cc1C(=O)Nc1ccc(F)c(C)n1 (stereo in doubt) [Compound 28a, N-(5-Fluoro-6-methylpyridin-2-yl)-5-(N-((trans)-2-hydroxycyclohexyl)sulfamoyl)-2-methoxybenzamide] | 7.72 |
| COc1ccc(S(=O)(=O)N[C@H]2CCOC2)cc1C(=O)Nc1ccc(F)cc1 [Compound 122, (S)—N-(4-Fluorophenyl)-2-methoxy-5-(N-(tetrahydrofuran-3-yl)sulfamoyl) benzamide] | 9.22 |
| COc1ccc(S(=O)(=O)NC2CC2)cc1C(=O)Nc1ccc(F)cc1 [Compound 48, 5-(N-Cyclopropylsulfamoyl)-N-(4-fluorophenyl)-2-methoxybenzamide] | 8.57 |
| COc1ccc(S(=O)(=O)N[C@H]2CCOC2)cc1C(=O)Nc1cccc(F)c1OC [Compound 134, (S)—N-(3-fluoro-2-methoxyphenyl)-2-methoxy-5-(N-(tetrahydrofuran-3-yl)sulfamoyl)benzamide] | 9.30 |
| COc1ccc(S(=O)(=O)N[C@H]2CCOC2)cc1C(=O)Nc1ccc(C(F)(F)F)cc1 [Compound 101, (S)-2-Methoxy-5-(N-(tetrahydrofuran-3-yl)sulfamoyl)-N-(4-(trifluoromethyl)phenyl)benzamide] | 6.66 |

Further lines, results first:

| pIC50 | Structure (SMILES) |
| --- | --- |
| 9.40 | COc1ccc(S(=O)(=O)N[C@H](C)CC#N)cc1C(=O)Nc1ccccc1Cl (single isomer, unassigned) [Compound 60b, (R*)—N-(2-chlorophenyl)-5-(N-(1-cyanopropan-2-yl)sulfamoyl)-2-methoxy benzamide] |
| 9.70 | COc1ccc(S(=O)(=O)NC2CC[C@H](O)C2)cc1C(=O)Nc1ccccc1Cl (stereo partly drawn) [Compound 57a] |
| 7.77 | COc1ccc(S(=O)(=O)N[C@H]2C[C@H](O)C2)cc1C(=O)Nc1cc(C)ccc1Cl [Compound 137a, N-(2-chloro-5-methylphenyl)-5-(N-((trans)-3-hydroxycyclobutyl)sulfamoyl)-2-methoxybenzamide] |
| 10.00 | COc1ccc(S(=O)(=O)N[C@H]2CCC[C@H]2O)cc1C(=O)Nc1ccccc1Cl [Compound 61a, N-(2-Chlorophenyl)-5-(N-((1s,2r)-2-hydroxycyclopentyl)sulfamoyl)-2-methoxy benzamide] |
| 9.30 | COc1ccc(S(=O)(=O)N[C@H]2C[C@H](O)C2)cc1C(=O)Nc1ccc(F)cc1Cl [Compound 144a, N-(2-chloro-4-fluorophenyl)-5-(N-((trans)-3-hydroxycyclobutyl)sulfamoyl)-2-methoxybenzamide] |
| 8.72 | COc1ccc(S(=O)(=O)NC2CC[C@H](O)C2)cc1C(=O)Nc1ccc(F)cc1 (stereo partly drawn) [Compound 45b] |
| 9.52 | COc1ccc(S(=O)(=O)N[C@@H](C)CO)cc1C(=O)Nc1ccccc1Cl [Compound 55a, (S)—N-(2-Chlorophenyl)-5-(N-(1-hydroxypropan-2-yl)sulfamoyl)-2-methoxy benzamide] |
| 10.00 | COc1ccc(S(=O)(=O)N[C@H](C)CO)cc1C(=O)Nc1ccccc1Cl [Compound 55b, (R)—N-(2-Chlorophenyl)-5-(N-(1-hydroxypropan-2-yl)sulfamoyl)-2-methoxy benzamide] |
| 8.96 | COc1ccc(S(=O)(=O)N[C@H]2CCN(C)C2=O)cc1C(=O)Nc1ccccc1Cl (single isomer, unassigned) [Compound 54a, (S*)—N-(2-Chlorophenyl)-2-methoxy-5-(1-methyl-2-oxopyrrolidin-3-yl) sulfamoyl)benzamide] |
| 8.55 | COc1ccc(NS(=O)(=O)[C@@H]2CCOC2)cc1C(=O)Nc1ccc(F)c(C)c1 (single isomer, unassigned) [Compound 202b, (R*)N-4-fluoro-3-methylphenyl)-2-methoxy-5-(tetrahydrofuran-3-sulfonamido)benzamide] |
| 8.41 | COc1ccc(S(=O)(=O)N[C@H]2C[C@H](O)C2)cc1C(=O)Nc1ccc(F)c(C(F)F)n1 [Compound 174a, N-(6-(Difluoromethyl)-5-fluoropyridin-2-yl)-5-(N-((trans)-3-hydroxycyclobutyl)sulfamoyl)-2-methoxybenzamide] |
